Here are results for five compounds from patent publication US10144729B2, “Isoxazole analogs as FXR agonists and methods of use thereof” (Enanta Pharmaceuticals, Inc., priority 2016, dated 2018).

The target of this experiment is human FXR (NR1H4) (Homo sapiens (Human), UniProt Q96RI1). Description: Human FXR (NR1H4) Assay (Gal4 promoter driven luciferase reporter, CHO cells). Particulars: for Efficacy (%): FXR reporter assay in CHO cells, efficacy normalized to CDCA set as 100%. Type of experiment: cell-based. The source says: Human FXR (NR1H4) Assay Determination of a ligand mediated Gal4 promoter driven transactivation to quantify ligand binding mediated activation of FXR. […] The principle application of this reporter assay system is to quantify functional activity of human FXR. The assay utilizes non-human mammalian cells, CHO (Chinese hamster ovary) cells engineered to express human NR1H4 protein (referred to as FXR). Reporter cells also incorporate the cDNA encoding beetle luciferase which catalyzes the substrates and yields photon emission. Luminescence intensity of the reaction is quantified using a plate-reading luminometer, Envision. Reporter Cells include the luciferase reporter gene functionally linked to an FXR responsive promoter. Thus, quantifying changes in luciferase expression in the treated reporter cells provides a sensitive surrogate measure of the changes in FXR activity. […] The assay is according to the manufacturer's instructions. […] Retrieve Reporter Cells from −80° C. storage. Perform a rapid thaw of the frozen cells by transferring a 10 ml volume of 37° C. cell recovery medium into the tube of frozen cells. Recap the tube of Reporter Cells and immediately place it in a 37° C. water bath for 5-10 minutes. Retrieve the tube of Reporter Cell Suspension from the water bath. Sanitize the outside surface of the tube with a 70% alcohol swab, and then transfer it into the cell culture hood. Dispense 90 μl of cell suspension into each well of the 96-well Assay Plate. Transfer the plate into 37° C. incubator, allowing the cells adherent to the bottom of the well. Dilute compounds in Dilution Plate (DP), and administrate to cells at Assay Plate (AP). DMSO content of the samples was kept at 0.2%. Cells were incubated for additional 22 hours before luciferase activities were measured. Thirty minutes before intending to quantify FXR activity, remove Detection Substrate and Detection Buffer from the refrigerator and place them in a low-light area so that they may equilibrate to room temperature. Remove the plate's lid and discard all media contents by ejecting it into an appropriate waste container. Gently tap the inverted plate onto a clean absorbent paper towel to remove residual droplets. Cells will remain tightly adhered to well bottoms. Add 100 μl of luciferase detection reagent to each well of the assay plate. Allow the assay plate to rest at room temperature for at least 5 minutes following the addition of LDR. Set the instrument (Envision) to perform a single 5 second “plate shake” prior to reading the first assay well. Read time may be 0.5 second (500 mSec) per well.
human FXR (NR1H4), sequence (Q96RI1 whole entry, the tested form may be a part): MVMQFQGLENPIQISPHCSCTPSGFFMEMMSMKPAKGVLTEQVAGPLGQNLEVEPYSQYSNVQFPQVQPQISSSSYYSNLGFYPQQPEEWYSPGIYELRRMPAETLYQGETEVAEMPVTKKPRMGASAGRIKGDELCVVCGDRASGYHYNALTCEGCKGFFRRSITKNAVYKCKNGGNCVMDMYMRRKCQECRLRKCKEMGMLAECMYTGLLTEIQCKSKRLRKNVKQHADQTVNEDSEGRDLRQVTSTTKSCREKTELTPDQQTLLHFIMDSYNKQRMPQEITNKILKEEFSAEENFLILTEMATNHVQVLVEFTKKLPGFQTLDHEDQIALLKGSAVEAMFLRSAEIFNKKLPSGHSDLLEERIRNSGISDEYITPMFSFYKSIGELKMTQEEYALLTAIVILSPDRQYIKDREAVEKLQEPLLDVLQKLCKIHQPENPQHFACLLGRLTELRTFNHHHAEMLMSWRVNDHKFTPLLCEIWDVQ

Structures are written as SMILES.

The EC50 is the concentration needed to bring the measured effect to its halfway point. For `O=C(NS(=O)(=O)C1CC1)c1ccc([C@@H]2C[C@H]2c2ccc(OCc3c(-c4c(Cl)cccc4Cl)noc3C3CC3)cc2Cl)cc1` [Example 2c], the EC50 was in the range of 100 to 1000 nM and the “Efficacy (%)” value amounted to 209%.

For `CC(C)(C)c1ccc(S(=O)(=O)NC(=O)c2ccc([C@@H]3C[C@H]3c3ccc(OCc4c(-c5c(Cl)cccc5Cl)noc4C4CC4)cc3Cl)cc2)cc1` [Example 2a], the EC50 lay in the range of 1000 to 10000 nM and the “Efficacy (%)” value was 115%.

For `CN(C)S(=O)(=O)NC(=O)Nc1ccc([C@@H]2C[C@H]2c2ccc(OCc3c(-c4c(Cl)cccc4Cl)noc3C3CC3)cc2Cl)cc1` [Example 1b], the EC50 lay in the range of 1000 to 10000 nM and the “Efficacy (%)” value came out at 194%.

For `CC(C)(C)c1ccc(S(=O)(=O)NC(=O)Nc2ccc([C@@H]3C[C@H]3c3ccc(OCc4c(-c5c(Cl)cccc5Cl)noc4C4CC4)cc3Cl)cc2)cc1` [Example 2d], the EC50 fell in the range of 100 to 1000 nM and the “Efficacy (%)” value stood at 236%.

On to `CN(C)S(=O)(=O)NC(=O)c1ccc([C@@H]2C[C@H]2c2ccc(OCc3c(-c4c(Cl)cccc4Cl)noc3C3CC3)cc2Cl)cc1` [Example 1a], for which the EC50 fell in the range of 100 to 1000 nM and the “Efficacy (%)” value worked out at 271%.
